Laboratory results: patent US10463664B2, “Inhibitors of HSV nucleotidyl transferases and uses therefor” (Saint Louis University, priority 2013, dated 2019)

Experiments:
[1] = system: TK-deficient mutant of HSV-2 strain 333, ΔTK-; assay: Replication inhibition of thymidine kinase-deficient HSV-2 mutant in Vero cells; format: cell-based, herpes simplex virus 2; conditions: 50 μM, 24 h
Experimental: Cells and Viruses. Vero cells were maintained in Dulbecco's modified Eagle's medium (DMEM) containing 3% newborn calf serum, 3% bovine growth serum, 2 mM L-glutamine and 100 IU/mL penicillin and 0.1 mg/mL streptomycin (P/S). Primary human foreskin fibroblasts (ATCC #CRL2429™) were cultured in DMEM containing 10% FBS, 2 mM L-glutamine plus P/S, and used at passage 3 to 12. HSV-1 #6 and HSV-2 #1 are de-identified clinical isolates from the Saint Louis University Hospital. Stocks were prepared after a single passage in cell culture and were titered by standard plaque assay (Knipe and Spang, 1982). Wild-type HSV-1 and HSV-2 used in FIG. 6 were laboratory strains 17 and 333, respectively. The HSV-1 TK-deficient mutant, ΔTK contains a 361-bp deletion between the BglII-SmaI restriction enzyme sites in the UL23 open reading frame of strain 17 (Korom, et al., 2013). The TK-deficient mutant of HSV-2 strain 333, ΔTK-, contains a 180-bp KpnI-KpnI deletion in the UL23 open reading frame that abrogates TK activity (McDermott, et al, 1984). ΔTK- was the generous gift of Jim Smiley. Virus stocks were grown and titered on Vero cells (Morrison and Knipe, 1996).
Inhibition of acyclovir-resistant HSV-1 and HSV-2 mutants. […] HSV TK-deficient mutants are therefore insensitive to ACV. […] Vero cells were infected with laboratory strains of HSV-1 or HSV-2 and engineered TK-deficient mutants of the same strains. […] Similar patterns were seen when the compounds were used at 5 μM (FIG. 8B), although inhibition by compound #30 at 5 μM was too low to definitively interpret.

Vero cells = assay: CytoTox-Glo cellular lysis assay in Vero cells; format: cell-based; conditions: 24 h; read-out: Vero cell toxicity CTG CC50
Experimental: Quantitative toxicity measurements were conducted for all compounds that suppressed HSV replication by approximately 2 login or more at 5 μM plus a number of compounds with lesser inhibitory activity for comparison. Toxicity was assessed by measuring release of intracellular proteases into the culture medium due to cellular lysis. […] Consistent with the subjective assessments of toxicity, all compounds selected for quantitative toxicity assessment had CC50 values ≥50 μM by both the MTT and cellular lysis assays (Table 1).

HSV-2 = HSV-2 viral DNA replication (quantitative PCR, GE) versus infectious virus (PFU) in Vero cells; format: cell-based, herpes simplex virus 2; conditions: for Fold suppression GE / Fold suppression PFU: 24 h, relative to DMSO
Experimental: Quantitative PCR measurement of viral genome levels. Infected cell cultures were collected and virus and cells were pelleted by centrifugation for 30 min at 12,000 rpm. Total DNA was isolated from the pellets using a QIAamp DNA Mini Kit (Qiagen) according to the manufacturer's instructions. DNA concentration of each preparation was measured using a Nanodrop 2000 spectrophotometer. The primers and probe for real-time PCR were designed to amplify a 108 bp segment in the HSV-2 LAT region. […] PCR reactions were set up in 25 μL containing FastStart Universal Probe master mix containing Rox (Roche), 900 nM forward and reverse primers, 250 nM probe, and 5 μL template DNA preparation (˜30-100 ng total DNA). Quantification was performed in triplicate for each DNA preparation using an ABI model 7500 genetic analyzer (Applied Biosystems) with the following cycling parameters: 1 cycle at 50° C. for 2 min, 1 cycle at 95° C. for 10 min, 40 cycles at 95° C. for 15 s, and 60° C. for 1 min. For absolute quantification, 10^3 to 10^8 copies of plasmid pcDNA3.1(+)5′Flag-ICP0 was used to generate a standard curve. Data were analyzed using Sequence Detection System software (ABI), and HSV-2 genome equivalents number per nanogram of total DNA was calculated and used for comparison.
Viral replication was measured 24 hours post-infection by plaque assay, and DNA replication was measured using quantitative PCR against the LAT gene and expressed as genome-equivalents (GE). […] Two inhibitor concentrations were assessed for compounds #30 (60 and 20 μM) and #46 (20 and 10 μM).

HFFs [2] = assay: Neutral red cytotoxicity assay in uninfected HFFs (14 day, with CPE assay); format: cell-based, human; conditions: 14 days
Experimental: Anti-HCMV CPE inhibition and cytotoxicity assays. HFFs were infected with HCMV strain AD169 in the presence of serial dilutions of the compounds from 0.0192 to 60 μM. Fourteen days later the monolayers were stained with crystal violet, and retained cell density was quantified using a multiplate autoreader (BioTek). Cytotoxicity was measured the same way, except that the cells were uninfected and neutral red internalization by viable cells was measured.
Antiviral efficacy against HCMV. The ability of select HSV inhibitors to inhibit replication of another major human herpesvirus pathogen, human cytomegalovirus (HCMV) (65) was tested. This was based on the inhibitors strong suppression of HSV-1 and HSV-2 and the prediction that other members of the herpesvirus family would be sensitive to NTS inhibitors due to their shared DNA replication mechanism. Compounds #41, 46, 49, 55, 56, and 59 and the FDA-approved anti-HCMV drug ganciclovir were evaluated with crystal violet CPE and neutral red toxicity assays in HFFs. HFFs were infected with HCMV in the presence of serial dilutions of the compounds that were most inhibitory for HSVs. After 14 days the monolayers were stained and cell density was determined by OD reading. Compound cytotoxicity for uninfected cells was determined in the same manner except that neutral red uptake by viable cells was measured. […] The TI values for the four NTS inhibitors of HCMV ranged from 4 for compound #41 to 38 for #56. Therefore, NTS inhibitors can suppress HCMV replication in addition to inhibiting the HSVs.

HFFs [3] = assay: Neutral red cytotoxicity assay in HFFs (10 day, with plaque reduction assay); format: cell-based, human; conditions: 10 day assay
Experimental: HCMV plaque reduction EC50 and toxicity assays. Low passage primary HFFs were infected with HCMV strain AD169 in the presence of serial dilutions of the compounds from 0.032 to 100 μM. Ten days later the monolayers were stained with 1% neutral red solution in PBS. After rinsing, plaques were counted using a stereomicroscope and the EC50 was interpolated from the data. Cytotoxicity was measured using a plate-based assay in which compounds were added to HFFs at 0.032 to 100 μM. At the end of the incubation period, plates were stained for 1 h with a neutral red solution in PBS. The stain was then removed, the plates rinsed in PBS and dried, and dye internalized by viable cells was determined at OD550. CC50 values were interpolated from the data.
Compounds #41, 46, 49, 55, 56, and 59 and the FDA-approved, anti-HCMV drug ganciclovir were subsequently evaluated with plaque reduction and toxicity assays in HFFs. HFFs were infected with HCMV in the presence of serial dilutions of the compounds. After 10 days the cultures were stained with neutral red and plaques were counted. Compound cytotoxicity for uninfected cells was determined in the same manner except that neutral red uptake by viable cells was measured by optical density. […] The TI values for the five NTS inhibitors of HCMV ranged from 5 for compound #46 to 17 for #55 and 59. Therefore, NTS inhibitors can suppress HCMV replication in addition to inhibiting the HSVs.

| SMILES | Inhibition of TK-mutant HSV-2 (in words) [1] | CC50 (Vero cells) | Fold suppression PFU/GE (HSV-2; 20 μM) | Fold suppression GE (HSV-2; 20 μM) | Fold suppression PFU (HSV-2; 20 μM) | Fold suppression PFU/GE (HSV-2; 60 μM) | Fold suppression GE (HSV-2; 60 μM) | Fold suppression PFU (HSV-2; 60 μM) | CC50, neutral red (HFFs [2]) | Fold suppression PFU/GE (HSV-2; 10 μM) | Fold suppression GE (HSV-2; 10 μM) | Fold suppression PFU (HSV-2; 10 μM) | CC50 (HFFs [3]) | CC50 (HFFs [2]) |
| --- | --- | --- | --- | --- | --- | --- | --- | --- | --- | --- | --- | --- | --- | --- |
| Nc1nc2c(ncn2COCCO)c(=O)[nH]1 [ACV, Acyclovir, reference compound] | little effect | – | – | – | – | – | – | – | – | – | – | – | – | – |
| CCOc1ccc(-c2c3cc(O)c(=O)cc-3oc3cc(O)c(O)cc23)cc1 [Compound 30] | efficiently inhibited | > 100 µM | 4.5 | 150 fold | 676 fold | 143.7 | 247 fold | 35500 fold | – | – | – | – | – | – |
| Cc1cc(C2CCCCC2)n(O)c(=O)c1 [Compound 41, Ciclopirox, reference compound] | efficiently inhibited | – | – | – | – | – | – | – | measurable toxicity | 62.0 | 551 fold | 34159 fold | – | – |
| CC(C)c1ccc(O)c(=O)c(O)c1 [Compound 46, Beta-thujaplicinol] | efficiently inhibited | > 100 µM | 538.2 | 615 fold | 331000 fold | – | – | – | – | 541.6 | 470 fold | 254536 fold | 6.7 µM | > 60 µM |
| CC(C)=CCc1ccc(O)c(=O)cc1C(C)C [Compound 49, Nootkatin] | – | > 100 µM | – | – | – | – | – | – | – | – | – | – | 6.7 µM | > 60 µM |
| CC(=O)NC(CCc1ccc(Cl)c(Cl)c1)c1cccc(O)c(=O)c1 (stereo not shown) [Compound 55] | – | > 100 µM | – | – | – | – | – | – | – | – | – | – | 8 µM | > 60 µM |
| C=C(C)C1CCc2c(c(C)cc(O)c(=O)c2O)C1 (stereo not shown) [Compound 56, Manicol] | – | ~100 µM | 314.3 | 420 fold | 132000 fold | – | – | – | measurable toxicity | – | – | – | 6.7 µM | 38.4 µM |
